# In patent US20240254143A1, “OREXIN RECEPTOR AGONISTS AND USES THEREOF” (JAZZ PHARMACEUTICALS IRELAND LIMITED, priority 2021, published 2024):
# pEC50: −log10 of the molar value.
# Biological target: T1, human recombinant OX2 (hOX2) receptor (Homo sapiens, UniProt O43614)
# T1 construct: host or cells: CHO cells
# T1 sequence (O43614 1-444): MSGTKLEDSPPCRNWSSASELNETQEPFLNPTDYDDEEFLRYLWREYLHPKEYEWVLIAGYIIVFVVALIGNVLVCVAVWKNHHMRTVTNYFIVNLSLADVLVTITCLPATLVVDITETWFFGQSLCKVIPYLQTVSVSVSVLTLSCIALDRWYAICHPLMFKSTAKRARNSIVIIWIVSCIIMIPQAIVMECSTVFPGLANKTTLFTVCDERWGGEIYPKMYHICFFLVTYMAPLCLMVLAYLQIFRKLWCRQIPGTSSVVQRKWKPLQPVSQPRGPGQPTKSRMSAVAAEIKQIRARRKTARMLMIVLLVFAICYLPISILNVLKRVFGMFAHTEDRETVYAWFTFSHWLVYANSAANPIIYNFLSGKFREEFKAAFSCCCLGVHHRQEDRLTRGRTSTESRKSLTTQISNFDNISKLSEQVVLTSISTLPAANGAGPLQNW
# Test: IP-1 accumulation assay (IP-One HTRF) in hOX2-CHO cells
# Format: cell-based
# Details: 60 min at 37° C., mean of at least two independent experiments, read-out: EC50_OX2R Category
# Description: Example 94: IP-1 Accumulation Assay
# The accumulation of Inositol-1 Monophosphate (IP-1) was measured using IP-One HTRF® Terbium cryptate based assay (Cisbio) in human recombinant OX1 (hOX1) and at OX2 (hOX2) receptors expressed in CHO cells (DiscoverX) according to the manufacturer's instructions for cells tested in suspension.
# hOX1-CHO and hOX2-CHO cells were seeded into white 384-well plates at a density of 20,000 cells/well in Hank's Balanced Salt Solution (HBSS) containing 20 mM HEPES pH 7.4, 50 mM, LiCl and 0.1% and Bovine Serum Albumin (BSA).
# Compounds of the present disclosure were tested in a 11 points concentration response curve (CRC) serially diluted in neat DMSO at 200 fold concentrations and added by Echo acoustic liquid handling (Labcyte) to the cells (0.5% DMSO final in the assay). After 60 min of incubation at 37° C. detection reagents, IP1-d2 tracer and anti-IP1-cryptate were diluted in lysis buffer according to the manufacturer's descriptions and added to the cells.
# Following 60 mi incubation at room temperature, time-resolved fluorescence (HTRF) was measured at 615 nm and 665 nm by Envision Multilabel reader (Perkin Elmer) and the HTRF ratio (A665/A615×10^4) was calculated.
# The IP-1 accumulation response was expressed as percentage of the maximal OX-A response.
# Curve fitting and EC50 estimations were carried out using a four-parameter logistic model using XLfit Software. Mean data of EC50 are calculated from at least two independent experiments performed in duplicates.
row,pEC50,Compound
1,< 5.00,"CCNC(=O)N1CCC[C@@]2(CNS(=O)(=O)N2)[C@@H]1Cc1cccc(-c2ccccc2)c1 (single isomer, unassigned) [Example 31]"
2,5.00 to 6.00,"CCNC(=O)N1CCC[C@]2(COCC(=O)N2)[C@H]1CO[C@H]1CC[C@@H](c2ccccc2)CC1 (single isomer, unassigned) [Example 2]"
3,> 7.00,"CCNC(=O)N1CCCC2(CCOC(=O)N2)C1CO[C@H]1CC[C@@H](c2ccccc2)CC1 (stereo partly drawn) [Example 11, (CIS)-N-ethyl-2-oxo-7-({[(CIS)-4-phenylcyclohexyl]oxy}methyl)-3-oxa-1,8-diazaspiro[5.5]undecane-8-carboxamide]"
4,6.00 to 7.00,"O=C1COC[C@@]2(C[C@@H](C(F)F)N(C(=O)[C@H]3C[C@@H](F)C3)[C@H]2Cc2cccc(-c3cc(F)cc(F)c3)c2F)N1 [Example 80, (1S,3S,5S)-3-(difluoromethyl)-2-[(1s,3s)-3-fluorocyclobutanecarbonyl]-1-({2,3′,5′-trifluoro-[1,1′-biphenyl]-3-yl}methyl)-9-oxa-2,6-diazaspiro[4.5]decan-7-one]"
5,< 5.00,"COC(=O)N1CCC[C@]2(CCOC(=O)N2)[C@@H]1Cc1cccc(-c2ccccc2)c1 (single isomer, unassigned) [Example 22]"
6,> 7.00,"C[C@@H]1C[C@@]2(COCC(=O)N2)[C@H](Cc2cccc(-c3cc(F)cc(F)c3)c2F)N1C(=O)[C@H]1C[C@@H](F)C1 [Example 82, (1S,3R,5S)-3-methyl-2-[(1s,3s)-3-fluorocyclobutanecarbonyl]-1-({2,3′,5′-trifluoro-[1,1′-biphenyl]-3-yl}methyl)-9-oxa-2,6-diazaspiro[4.5]decan-7-one]"
7,< 5.00,"CCNC(=O)N1CCC(F)(F)[C@]2(CCOC(=O)N2)[C@H]1CO[C@H]1CC[C@@H](c2ccccc2)CC1 (single isomer, unassigned) [Example 46]"
8,< 5.00,"O=C1COC[C@]2(CCN(C(=O)[C@H]3C[C@@H](F)C3)[C@@H]2Cc2cccc(-c3cc(F)cc(F)c3)c2F)N1 (single isomer, unassigned) [Example 73]"
9,< 5.00,"O=C1NC2(CCCN(CC(F)(F)F)C2CO[C@H]2CC[C@@H](c3ccccc3)CC2)CCO1 (mixture of isomers) [Example 68, rel-(6R,7R)-7-({[(CIS)-4-phenylcyclohexyl]oxy}methyl)-8-(2,2,2-trifluoroethyl)-3-oxa-1,8-diazaspiro[5.5] undecan-2-one]"
10,6.00 to 7.00,"C[C@@H]1C[C@@]2(COCC(=O)N2)[C@H](Cc2cccc(-c3cc(F)cc(F)c3)c2F)N1C(=O)C1CC1F (single isomer, unassigned) [Example 92]"
11,> 7.00,"CCNC(=O)N1[C@H](C)C[C@@]2(COCC(=O)N2)[C@@H]1Cc1cccc(-c2cc(F)cc(F)c2)c1F [Example 53, (1S,3R,5S)-N-ethyl-3-methyl-7-oxo-1-({2,3′,5′-trifluoro-[1,1′-biphenyl]-3-yl}methyl)-9-oxa-2,6-diazaspiro[4.5]decane-2-carboxamide]"
12,< 5.00,"O=C1N[C@@]2(CCN(C(=O)OCC(F)F)[C@@H]2Cc2cccc(-c3cc(F)cc(F)c3)c2F)COC1F (single isomer, unassigned) [Example 75]"
13,6.00 to 7.00,"C[C@@H]1C[C@@]2(COCC(=O)N2)[C@H](Cc2cccc(-c3cc(F)cc(F)c3)c2F)N1C(=O)OCC(F)F [Example 83, 2,2-difluoroethyl (1S,3R,5S)-3-methyl-7-oxo-1-({2,3′,5′-trifluoro-[1,1′-biphenyl]-3-yl}methyl)-9-oxa-2,6-diazaspiro[4.5]decane-2-carboxylate]"
14,< 5.00,"CCNC(=O)N1[C@H](C)C[C@]2(COCC(=O)N2)[C@H]1CO[C@H]1CC[C@@H](c2ccccc2)CC1 [Example 48, (1S,3R,5R)-N-ethyl-3-methyl-7-oxo-1-({[(CIS)-4-phenylcyclohexyl]oxy}methyl)-9-oxa-2,6-diazaspiro[4.5] decane-2-carboxamide]"
15,< 5.00,"O=C1N[C@@]2(CCCN(C(=O)[C@H]3C[C@@H](F)C3)[C@@H]2CO[C@H]2CC[C@@H](c3ccccc3)CC2)CCO1 (single isomer, unassigned) [Example 67]"
16,5.00 to 6.00,"C[C@@H]1C[C@@]2(COCC(=O)N2)[C@H](CO[C@H]2CC[C@@H](c3ccccc3)CC2)N1C(=O)C12CC(C1)C2 [Example 60, (1R,3R,5S)-2-{bicyclo[1.1.1]pentane-1-carbonyl}-3-methyl-1-({[(CIS)-4-phenylcyclohexyl]oxy}methyl)-9-oxa-2,6-diazaspiro[4.5]decan-7-one]"

row,pEC50,Compound
1,> 7.00,"CCNC(=O)N1CCCC2(COCC(=O)N2)C1CO[C@H]1CC[C@@H](c2ccccc2)CC1 (mixture of isomers) [Example 1, (CIS)-N-ethyl-2-oxo-7-({[(CIS)-4-phenylcyclohexyl]oxy}methyl)-4-oxa-1,8-diazaspiro[5.5]undecane-8-carboxamide]"
2,5.00 to 6.00,CCNC(=O)N1CCCC2(COC(=O)N2)C1CO[C@H]1CC[C@@H](c2ccccc2)CC1 (mixture of isomers) [Example 10]
3,> 7.00,"CCNC(=O)N1CCC[C@@]2(CCCC(=O)N2)[C@@H]1CO[C@H]1CC[C@@H](c2ccccc2)CC1 (single isomer, unassigned) [Example 35]"
4,5.00 to 6.00,"CCNC(=O)N1CCCC2(CCOC(=O)N2)C1CO[C@H]1CC[C@@H](c2ccccc2)CC1 (stereo partly drawn) [Example 12, (Trans)-N-ethyl-2-oxo-7-({[(CIS)-4-phenylcyclohexyl]oxy}methyl)-3-oxa-1,8-diazaspiro[5.5]undecane-8-carboxamide]"
5,> 7.00,"C[C@@H]1C[C@@]2(COCC(=O)N2)[C@H](CO[C@H]2CC[C@@H](c3ccccc3)CC2)N1C(=O)[C@H]1C[C@@H](F)C1 [Example 59, (1R,3R,5S)-3-methyl-2-[(1s,3s)-3-fluorocyclobutanecarbonyl]-1-({[(CIS)-4-phenylcyclohexyl]oxy}methyl)-9-oxa-2,6-diazaspiro[4.5]decan-7-one]"
6,< 5.00,"COC(=O)N1CCC[C@]2(COCC(=O)N2)[C@H]1CO[C@H]1CC[C@@H](c2ccccc2)CC1 (single isomer, unassigned) [Example 5]"
7,> 7.00,"C[C@@H]1C[C@@]2(COCC(=O)N2)[C@H](CO[C@H]2CC[C@@H](c3ccccc3)CC2)N1c1nnnn1C [Example 64, (1R,3R,5S)-3-methyl-2-(1-methyl-1H-1,2,3,4-tetrazol-5-yl)-1-({[(CIS)-4-phenylcyclohexyl]oxy}methyl)-9-oxa-2,6-diazaspiro[4.5]decan-7-one]"
8,< 5.00,"CCNC(=O)N1CCC[C@]2(CCCC(=O)N2)[C@H]1CO[C@H]1CC[C@@H](c2ccccc2)CC1 (single isomer, unassigned) [Example 34]"
9,> 7.00,"CCNC(=O)N1[C@H](C)C[C@@]2(COCC(=O)N2)[C@@H]1CO[C@H]1CC[C@@H](c2ccccc2)CC1 [Example 47, (1R,3R,5S)-N-ethyl-3-methyl-7-oxo-1-({[(CIS)-4-phenylcyclohexyl]oxy}methyl)-9-oxa-2,6-diazaspiro[4.5] decane-2-carboxamide]"
10,> 7.00,"C[C@@H]1C[C@@]2(COCC(=O)N2)[C@H](Cc2cccc(-c3cc(F)cc(F)c3)c2F)N1C(=O)C1CCC1 [Example 81, (1S,3R,5S)-2-cyclobutanecarbonyl-3-methyl-1-({2,3′,5′-trifluoro-[1,1′-biphenyl]-3-yl}methyl)-9-oxa-2,6-diazaspiro[4.5]decan-7-one]"
11,6.00 to 7.00,"COC(=O)N1CCC[C@@]2(COCC(=O)N2)[C@@H]1CO[C@H]1CC[C@@H](c2ccccc2)CC1 (single isomer, unassigned) [Example 6]"
12,< 5.00,"COC(=O)N1CCC[C@@]2(CCOC(=O)N2)[C@H]1Cc1cccc(-c2ccccc2)c1 (single isomer, unassigned) [Example 23]"
13,< 5.00,"CCNC(=O)N1CC[C@]2(COCC(=O)N2)[C@H]1CO[C@H]1CC[C@@H](c2ccccc2)CC1 (single isomer, unassigned) [Example 17]"
14,< 5.00,"COC(=O)N1CCC[C@]2(CCOC(=O)N2)[C@H]1Cc1cccc(-c2ccccc2)c1 (single isomer, unassigned) [Example 20]"
15,6.00 to 7.00,"CCNC(=O)N1CCCC2(COCC(=O)N2)C1COC1CCN(c2ncc(F)cn2)CC1 (racemic) [Example 76, rel-(6S,7R)-N-ethyl-7-({[1-(5-fluoropyrimidin-2-yl)piperidin-4-yl]oxy}methyl)-2-oxo-4-oxa-1,8-diazaspiro[5.5]undecane-8-carboxamide]"
